Consider three compounds from PMC5445010 (Chembiochem : a European journal of chemical biology, 2017).

For orientation: Ki means the dissociation constant of the complex between target and ligand, obtained from inhibition or displacement.

Like-named read-outs stand apart in the source and are kept apart here.

Experiment [1] relates to IspH. The following applies: cited from earlier work.
A further experiment has as its system IspG. The following applies: cited from earlier work.
In experiment [2] the target is IspH. The format is biochemical.

In the case of `C#CCOP(=O)(O)OP(=O)(O)O` [Compound 5, propargyl diphosphate], the “IspH inhibition (in words)” value in the experiment on IspH [1] is “low μM inhibitors”. Further, in the experiment with IspG, the “IspG inhibition (in words)” value is recorded as “low μM inhibitors”. Turning to `C#CCO` [propargyl alcohol], the Ki on IspH [2] (read-out: IspH inhibition Ki) was over 10000 µM. Regarding `Nc1ccc2c(c1)CC1(C(=O)NC(=O)NC1=O)C1CN(Cc3ccccc3)CCN21` (stereo not shown) [Compound 9, 8-amino-3-benzyl-2,3,4,4a-tetrahydro-1H,2′H,6H-spiro[pyrazino[1,2-a]quinoline-5,5′-pyrimidine]-2′,4′,6′ (1′H,3′H)-trione], at IspH [2] (read-out: Ki of barbiturate analogs, IspH (summary over enzymes)), the Ki is 0.5 to 3 µM.
